{
  "source": "patent US20220339180A1",
  "about": "“Methods And Compositions For Treating Viral Diseases Using Combination Of Drugs” (priority 2021, published 2022)",
  "key": {"SARS-CoV-2": {"tested_on": "SARS-CoV-2", "type": "cell-based"}, "human Akt2 [1]": {"target": "T1, human Akt2 (Homo sapiens, UniProt P31751)", "experiment": "ADP-Glo Kinase assay, human Akt2", "type": "biochemical", "settings": "500 nM compound, excess of ATP"}, "CoV-2 RdRp": {"target": "CoV-2 RdRp (Severe acute respiratory syndrome coronavirus 2, UniProt P0DTD1)", "type": "biochemical, SARS-CoV-2"}, "human Akt2 [2]": {"target": "T1, human Akt2", "settings": "read-out: Km for ATP; human Akt2, previously reported studies; cited from earlier work"}, "[3]": {"substrate": "Nc1ncnc2c1ncn2[C@@H]1O[C@H](COP(=O)(O)OP(=O)(O)OP(=O)(O)O)[C@@H](O)[C@H]1O", "experiment": "purified protein, by the assay type", "settings": "other: human Akt2"}},
  "note": "Like-named read-outs stand apart in the source and are kept apart here.",
  "data": [
    {"molecule": "CNC(=O)c1cc(Oc2ccc(NC(=O)Nc3ccc(Cl)c(C(F)(F)F)c3)cc2)ccn1", "note": "[Sorafenib]", "values": [
      {"measurement": "cell survival of SARS-CoV-2 infected epithelial cells", "setting": "SARS-CoV-2; 1, 5, 25 and 50 μM, concentrations similar to Remdesivir", "result": "improves cell survival"},
      {"measurement": "reduction in the infection", "setting": "SARS-CoV-2; 1-50 μM, Remdesivir as control", "result": "significant reduction in the infection"},
      {"measurement": "clearing of virus from infected cells, single agent", "setting": "SARS-CoV-2; Sorafenib 4 μM or remdesivir 1 μM alone", "result": "have effect to clear the virus"},
      {"measurement": "viral load", "setting": "SARS-CoV-2; ex-vivo SARS-CoV-2 infection in cell line", "result": "significantly reduces viral load"},
      {"measurement": "inhibition of kinase activity of human Akt2", "setting": "human Akt2 [1]", "result": "significantly inhibited"}
    ]},
    {"molecule": "CC(Cc1ccc(O)c(O)c1)C(C)Cc1ccc(O)c(O)c1", "note": "(stereo not drawn) [compound 4534, Nordihydroguaiaretic acid]", "values": [
      {"measurement": "inhibition of kinase like activity of CoV-2 RdRp", "setting": "CoV-2 RdRp", "result": "failed to inhibit"}
    ]},
    {"molecule": "NC(=O)c1ncn([C@@H]2O[C@H](COP(=O)(O)OP(=O)(O)OP(=O)(O)O)[C@@H](O)[C@H]2O)n1", "note": "[compound 122108, Ribavirin 5′-triphosphate]", "values": [
      {"measurement": "inhibition of kinase like activity of CoV-2 RdRp", "setting": "CoV-2 RdRp; 500 nM compound, excess of ATP", "result": "very little effects"},
      {"measurement": "inhibition of kinase like activity of CoV-2 RdRp", "setting": "CoV-2 RdRp; 1000 nM compound", "result": "conspicuous inhibitions"}
    ]},
    {"molecule": "CN(C)S(=O)(=O)c1ccc2c(c1)/C(=C/c1cc3c([nH]1)CCCC3)C(=O)N2", "note": "[SU6656]", "values": [
      {"measurement": "inhibition of kinase like activity of CoV-2 RdRp", "setting": "CoV-2 RdRp", "result": "significantly abrogated"},
      {"measurement": "inhibition of kinase activity of human Akt2", "setting": "human Akt2 [1]", "result": "significantly inhibited"}
    ]},
    {"molecule": "Nc1ncnc2c1ncn2[C@@H]1O[C@H](COP(=O)(O)OP(=O)(O)OP(=O)(O)O)[C@@H](O)[C@H]1O", "note": "[ATP, Adenosine triphosphate]", "values": [
      {"measurement": "Km", "setting": "human Akt2 [2]", "result": "~350", "unit": "µM"}
    ]},
    {"molecule": "human Akt2 (Homo sapiens) (protein) MNEVSVIKEGWLHKRGEYIKTWRPRYFLLKSDGSFIGYKERPEAPDQTLPPLNNFSVAECQLMKTERPRPNTFVIRCLQWTTVIERTFHVDSPDEREEWMRAIQMVANSLKQRAPGEDPMDYKCGSPSDSSTTEEMEVAVSKARAKVTMNDFDYLKLLGKGTFGKVILVREKATGRYYAMKILRKEVIIAKDEVAHTVTESRVLQNTRHPFLTALKYAFQTHDRLCFVMEYANGGELFFHLSRERVFTEERARFYGAEIVSALEYLHSRDVVYRDIKLENLMLDKDGHIKITDFGLCKEGISDGATMKTFCGTPEYLAPEVLEDNDYGRAVDWWGLGVVMYEMMCGRLPFYNQDHERLFELILMEEIRFPRTLSPEAKSLLAGLLKKDPKQRLGGGPSDAKEVMEHRFFLSINWQDVVQKKLLPPFKPQVTSEVDTRYFDDEFTAQSITITPPDRYDSLGLLELDQRTHFPQFSYSASIRE", "values": [
      {"measurement": "Km", "setting": "[3]", "result": 300, "unit": "µM"}
    ]}
  ]
}
